Results as given in US20070167408A1, “NOVEL ALKYL PHOSPHOLIPID DERIVATIVES WITH REDUCED CYTOTOXICITY AND USES THEREOF” (ZENTARIS GmbH, priority 2005, published 2007).
In brackets after ≈: the same amount, converted by molar mass.

Legend:
Format in all cases: cell-based
[1] = tested on: Cryptococcus neoformans H99; experiment: Anti-fungal broth microdilution (MIC), fungus I; conditions: yeast protocol, more than 80% inhibition, 48 h
Procedure, shortened: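 Broth microdilution per NCCLS M27-A (yeasts) and M38-A (filamentous fungi), compounds tested from 64 down to 0.125 μg/ml against 10^6 CFU/ml inocula. For filamentous fungi, MIC read after 48 to 72 h at 35° C as the concentration giving more than 50% visible growth inhibition.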

[2] = tested on: Trypanosoma brucei rhodesiense (strain STIB900); experiment: In vitro drug activity assay, protozoon B; conditions: bloodstream form trypomastigotes, 72 hours, Alamar Blue
Protocol: In vitro activity of selected compounds of the invention against different protozoa was assessed as follows.
Trypanosoma brucei rhodesiense STIB900 bloodstream form trypomastigotes were maintained in HMI-18 medium (Hirumi H, Hirumi K, J Parasitol. 1989, 75(6):985-989) with 15% heat-inactivated fetal calf serum at 37° C., 5% CO2, humidified atmosphere. Trypomastigotes were washed and resuspended in fresh medium at a concentration of 2×10^5 mL. Test compounds were given to the trypomastigotes and plates were incubated for 72 hours at 37° C., 5% CO2, humidified atmosphere. At 72 hours the plates were assessed microscopically before Alamar Blue was added (Raz et al., Acta Trop. 1997, 68: 139-147). Plates were read after 5 to 6 hours at EX/EM 530/585 nm with a filter cutoff at 550 nm. ED50 values were calculated with Msxlfit (IDBS).
The following protozoa were assessed: • A) Trypanosoma cruzi (Tulahuan-LACZ amstigotes in PEM, Lorente S O et al., Antimicrobial agents and chemotherapy 2004, 48(8): 2937-2950; Buckner et al., Infection and Immunity 1999, 67(1): 403-409; Buckner et al., Antimicrobial Agents and Chemotherapy 1996, 40(11): 2592-2597) • B) Trypanosoma brucei rhodesiense (strain STIB900, Lorente S O et al., Antimicrobial agents and chemotherapy 2004, 48(8): 2937-2950; Habtemariam S, BMC Pharmacology 2003, 3:6) • C) Plasmodium falciparum (strain K1, Korsinczky M et al., Antimicrobial agents and chemotherapy 2000, 44(8): 2100-2108; Thaitong S and Beale G H, Trans. R. Soc. Trop. Med. Hyg. 1981, 75: 271-273; Trager W and Jensen J B, Science 1976, 193: 673-675) • D) Plasmodium faiciparum (strain 3D7, Mu et al., PLoS Biology 2005, 3(10): e335)

[3] = tested on: epimastigotes of Trypanosoma cruzi strain Y; experiment: In vitro activity of miltefosine and benznidazole against epimastigotes; conditions: 72 h
Protocol: In vitro activity of Miltefosine and Benznidazole in the course of a combination treatment against Trypanosoma cruzi strain Y was assessed compared to the respective single treatments with miltefosine or benznidazole alone.
Miltefosine and Benznidazol were tested in vitro in combination against epimastigote forms of Trypanosoma cruzi strain Y which were isolated from a chagasic patient in Sao Paulo, Brazil and obtained from Dr. Victor Nussenzweig (Silva, L H. and Nussenzweig, V.; Folia clin. biol., 20: 191-207, 1953). This T. cruzi Y strain can also be ordered at ATCC 50832, while the ATCC strain must be re-adapted by several passages through mice in order to regain the strain's original characteristics of differentiation and virulence.
Epimastigotes were axenially cultured in brain heart infusion medium (BHI, Becton, Dickinson, Cat. No. 221812) supplemented with 10 mg of hemin per liter and 5% heat inactivated fetal calf serum (FCS) at 28° C. with shaking (˜80 rpm) up to a maximum of 10-12 passages, before the cultures were aged to obtain metacyclics that were purified on a DE-52 column (Whatman DEAE cellulose ion exchange column, Waco, Cat. No. 17050-03 or 17050-04) and injected into mice. After 2-4 weeks parasites were recovered from blood and placed back into axenic culture.
Stock solutions of Miltefosine and Benznidazol in concentrations of 10 mg/ml and 20 mg/ml dissolved in methanol were used. Stock solutions were serially diluted with a factor of 2 in BHI-FCS medium. For Benznidazol the following testing concentrations were used: 80 μg/ml, 40 μg/ml, 20 μg/ml, 10 μg/ml, 5 μg/ml and 2.5 μg/ml. The testing concentrations for Miltefosine were 20 μg/ml, 10 μg/ml, 5 μg/ml, 2.5 μg/ml, 1.25 μg/ml and 0.625 μg/ml.
2×10^6 epimastigotes were incubated in BHI-FCS medium with Miltefosine and Benznidazol in a final volume of 200 μl. After 72 h incubation at 28° C., parasite growth was determined by direct counting the number of parasites with a Neubauer chamber. The 50% inhibitory concentrations were determined by linear regression analysis.

Row | Structure (SMILES) | MIC, fungus I [1] | ED50 (μg/mL), protozoon B [2] | Epimastigotes [amount/mL] ([3]; miltefosine 1.25 ug/mL) | Epimastigotes [amount/mL] ([3]; miltefosine 2.5 ug/mL)
1 | CCCCCCCCCCCCCCCCOP(=O)([O-])OCC[N+]1(C)CCCCC1 [Compound 2, Phosphoric acid hexadecyl ester 2-(1-methyl-piperidin-1-yl)-ethyl ester] | 1 µg/mL (≈ 2.23 µM) | 17.50 µg/mL (≈ 39.1 µM) | – | –
2 | CCCCCCCCCCCCCCCCOP(=O)([O-])OCC[N+](C)(C)C [miltefosine, hexadecylphosphocholine, reference compound] | – | – | 820.000 amount/mL | 290.000 amount/mL
